Test results reported in patent US11442072B2, “Method for measuring LDL aggregation” (Jenny and Antti Wihuri Foundation, priority 2018, dated 2022).

Key:
LDL particles = target: T1, LDL particles (Homo sapiens, UniProt P04114); experiment: Ex vivo enrichment of LDL with phospholipid vesicles, then hrSMase-induced aggregation (DLS); type: biochemical; details: LDL from four healthy volunteers, enriched with 1 mM phospholipid vesicles
T1 construct: from tissue; host or cells: human blood plasma (LDL fraction d=1.019-1.063 g/ml, ultracentrifugation)
T1 sequence (P04114 28-4563): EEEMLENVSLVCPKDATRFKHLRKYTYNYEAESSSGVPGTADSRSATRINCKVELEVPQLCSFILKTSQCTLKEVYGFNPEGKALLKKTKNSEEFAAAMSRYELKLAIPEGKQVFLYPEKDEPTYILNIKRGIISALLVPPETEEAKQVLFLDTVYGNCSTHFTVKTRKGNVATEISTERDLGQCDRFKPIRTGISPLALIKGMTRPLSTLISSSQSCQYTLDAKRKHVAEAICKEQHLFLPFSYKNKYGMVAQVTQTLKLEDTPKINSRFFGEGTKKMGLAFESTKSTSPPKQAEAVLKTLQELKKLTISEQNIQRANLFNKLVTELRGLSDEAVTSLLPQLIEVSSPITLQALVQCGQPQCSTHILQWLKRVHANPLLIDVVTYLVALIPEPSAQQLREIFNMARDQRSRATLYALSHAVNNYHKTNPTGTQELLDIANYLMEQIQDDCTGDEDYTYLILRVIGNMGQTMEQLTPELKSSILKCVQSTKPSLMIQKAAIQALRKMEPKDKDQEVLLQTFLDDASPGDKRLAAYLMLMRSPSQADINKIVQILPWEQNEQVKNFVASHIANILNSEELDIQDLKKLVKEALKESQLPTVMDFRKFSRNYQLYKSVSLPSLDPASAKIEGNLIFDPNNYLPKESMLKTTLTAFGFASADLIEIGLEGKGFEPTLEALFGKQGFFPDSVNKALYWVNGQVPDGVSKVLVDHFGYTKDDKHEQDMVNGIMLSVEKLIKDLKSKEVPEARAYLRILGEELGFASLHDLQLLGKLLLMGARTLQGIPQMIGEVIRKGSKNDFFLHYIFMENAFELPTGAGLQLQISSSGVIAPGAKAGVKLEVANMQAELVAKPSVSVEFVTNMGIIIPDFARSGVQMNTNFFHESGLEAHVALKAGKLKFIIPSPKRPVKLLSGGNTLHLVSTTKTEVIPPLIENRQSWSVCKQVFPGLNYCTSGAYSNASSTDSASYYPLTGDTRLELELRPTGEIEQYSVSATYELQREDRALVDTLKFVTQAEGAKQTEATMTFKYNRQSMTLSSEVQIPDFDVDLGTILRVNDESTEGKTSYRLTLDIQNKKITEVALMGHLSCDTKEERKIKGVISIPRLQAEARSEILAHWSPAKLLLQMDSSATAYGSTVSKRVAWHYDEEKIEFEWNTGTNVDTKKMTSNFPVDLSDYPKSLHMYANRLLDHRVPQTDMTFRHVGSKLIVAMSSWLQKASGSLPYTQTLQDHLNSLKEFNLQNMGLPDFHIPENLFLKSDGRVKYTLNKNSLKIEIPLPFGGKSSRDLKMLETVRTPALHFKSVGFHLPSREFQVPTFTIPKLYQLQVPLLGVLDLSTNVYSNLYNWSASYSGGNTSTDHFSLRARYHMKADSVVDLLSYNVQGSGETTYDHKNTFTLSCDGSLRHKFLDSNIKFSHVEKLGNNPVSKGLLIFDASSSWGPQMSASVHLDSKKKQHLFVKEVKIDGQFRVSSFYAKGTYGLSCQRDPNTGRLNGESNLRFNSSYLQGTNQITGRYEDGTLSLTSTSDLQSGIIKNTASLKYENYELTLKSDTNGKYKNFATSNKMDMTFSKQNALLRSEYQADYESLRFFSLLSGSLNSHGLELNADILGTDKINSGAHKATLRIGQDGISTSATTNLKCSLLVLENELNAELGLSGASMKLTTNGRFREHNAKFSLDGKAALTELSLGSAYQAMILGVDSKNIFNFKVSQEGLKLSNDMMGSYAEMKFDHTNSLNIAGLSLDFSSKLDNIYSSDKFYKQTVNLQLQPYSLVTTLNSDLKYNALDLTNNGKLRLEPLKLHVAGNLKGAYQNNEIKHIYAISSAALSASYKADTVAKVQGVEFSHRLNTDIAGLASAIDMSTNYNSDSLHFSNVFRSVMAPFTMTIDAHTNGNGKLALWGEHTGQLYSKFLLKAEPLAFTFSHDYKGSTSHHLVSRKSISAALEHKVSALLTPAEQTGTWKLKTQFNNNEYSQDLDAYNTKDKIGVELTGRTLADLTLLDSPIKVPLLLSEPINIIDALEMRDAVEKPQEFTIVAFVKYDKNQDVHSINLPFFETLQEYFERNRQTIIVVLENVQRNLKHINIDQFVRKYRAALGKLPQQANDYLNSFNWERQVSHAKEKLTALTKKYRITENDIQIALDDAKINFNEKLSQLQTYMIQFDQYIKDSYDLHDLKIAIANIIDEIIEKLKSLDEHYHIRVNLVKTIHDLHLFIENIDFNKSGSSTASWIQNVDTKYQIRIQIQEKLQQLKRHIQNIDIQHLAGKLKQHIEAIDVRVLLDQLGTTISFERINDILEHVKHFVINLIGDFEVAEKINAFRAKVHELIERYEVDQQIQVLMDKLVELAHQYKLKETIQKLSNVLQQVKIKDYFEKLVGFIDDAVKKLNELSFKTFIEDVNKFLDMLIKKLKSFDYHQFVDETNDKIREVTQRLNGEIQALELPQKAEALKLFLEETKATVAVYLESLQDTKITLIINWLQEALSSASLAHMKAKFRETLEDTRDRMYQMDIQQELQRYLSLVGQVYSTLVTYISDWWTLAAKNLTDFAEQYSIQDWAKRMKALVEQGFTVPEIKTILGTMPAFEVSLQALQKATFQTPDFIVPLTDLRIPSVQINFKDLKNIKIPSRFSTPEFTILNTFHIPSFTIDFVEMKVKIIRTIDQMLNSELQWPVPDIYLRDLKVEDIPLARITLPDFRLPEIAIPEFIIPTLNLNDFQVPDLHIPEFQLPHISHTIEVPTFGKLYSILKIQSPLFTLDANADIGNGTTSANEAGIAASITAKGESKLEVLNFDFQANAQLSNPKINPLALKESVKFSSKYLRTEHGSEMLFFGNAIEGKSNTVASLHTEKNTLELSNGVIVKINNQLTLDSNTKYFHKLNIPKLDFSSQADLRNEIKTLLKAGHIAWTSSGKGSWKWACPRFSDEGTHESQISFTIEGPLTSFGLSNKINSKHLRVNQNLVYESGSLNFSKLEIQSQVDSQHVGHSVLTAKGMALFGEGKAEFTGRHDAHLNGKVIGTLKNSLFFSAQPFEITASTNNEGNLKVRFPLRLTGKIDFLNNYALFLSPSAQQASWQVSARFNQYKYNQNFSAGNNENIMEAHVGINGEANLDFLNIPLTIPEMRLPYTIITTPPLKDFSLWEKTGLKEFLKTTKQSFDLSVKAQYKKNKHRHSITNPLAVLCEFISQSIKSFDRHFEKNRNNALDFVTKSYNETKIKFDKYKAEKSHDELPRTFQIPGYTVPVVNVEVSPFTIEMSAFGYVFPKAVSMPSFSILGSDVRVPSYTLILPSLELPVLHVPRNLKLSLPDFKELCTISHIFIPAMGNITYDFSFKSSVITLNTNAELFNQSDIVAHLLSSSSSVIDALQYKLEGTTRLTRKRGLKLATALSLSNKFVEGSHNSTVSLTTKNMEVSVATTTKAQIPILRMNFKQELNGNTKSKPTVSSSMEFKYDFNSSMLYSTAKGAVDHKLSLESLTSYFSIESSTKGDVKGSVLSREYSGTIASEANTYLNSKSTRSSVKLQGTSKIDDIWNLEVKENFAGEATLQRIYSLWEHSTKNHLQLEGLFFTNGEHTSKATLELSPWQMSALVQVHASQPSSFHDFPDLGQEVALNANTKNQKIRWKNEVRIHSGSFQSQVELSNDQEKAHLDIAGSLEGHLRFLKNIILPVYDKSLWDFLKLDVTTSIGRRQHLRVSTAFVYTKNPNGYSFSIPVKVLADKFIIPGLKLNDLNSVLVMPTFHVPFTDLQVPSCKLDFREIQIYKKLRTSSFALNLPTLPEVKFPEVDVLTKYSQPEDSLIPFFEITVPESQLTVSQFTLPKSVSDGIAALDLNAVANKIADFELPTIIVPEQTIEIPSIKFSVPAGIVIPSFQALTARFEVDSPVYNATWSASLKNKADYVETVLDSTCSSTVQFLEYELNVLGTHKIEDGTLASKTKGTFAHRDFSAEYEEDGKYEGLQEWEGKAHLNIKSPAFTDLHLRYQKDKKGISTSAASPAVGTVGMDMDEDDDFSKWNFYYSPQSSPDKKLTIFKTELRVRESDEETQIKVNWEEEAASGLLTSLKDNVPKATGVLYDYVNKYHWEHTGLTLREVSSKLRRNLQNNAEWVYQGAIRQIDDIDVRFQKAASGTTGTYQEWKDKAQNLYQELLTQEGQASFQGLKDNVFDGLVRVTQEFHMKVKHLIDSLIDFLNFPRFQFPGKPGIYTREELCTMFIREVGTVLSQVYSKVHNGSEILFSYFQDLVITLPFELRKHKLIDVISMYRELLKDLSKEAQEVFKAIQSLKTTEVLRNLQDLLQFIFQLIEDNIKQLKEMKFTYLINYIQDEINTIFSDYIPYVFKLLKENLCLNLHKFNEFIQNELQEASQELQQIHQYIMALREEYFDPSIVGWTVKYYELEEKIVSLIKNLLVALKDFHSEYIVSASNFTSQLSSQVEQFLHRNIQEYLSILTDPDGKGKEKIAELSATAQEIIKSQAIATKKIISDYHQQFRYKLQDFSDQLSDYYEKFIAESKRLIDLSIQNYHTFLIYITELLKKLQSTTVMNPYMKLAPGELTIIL
Experimental: In the standard assay, LDL isolated from human plasma was extensively dialyzed against 20 mM MES buffer, pH 5.5, containing 150 mM NaCl and 50 μM ZnCl2 and its apoB-100 concentration was determined by ELISA (Mabtech). The sample was diluted with the same buffer to give a final concentration of 0.2 mg of apoB-100/ml and 75 μg/ml of hrSMase was added to LDL. The size of LDL was determined immediately and once every hour for up to 6-hours. An aliquot was taken at the same time points for phosphorylcholine measurement. The degree of SM hydrolysis was determined by measuring the amount of phosphorylcholine from the samples with Amplex Red reagent (Invitrogen).
To exchange LDL surface phospholipids, LDL (2 mg/ml) was incubated with phospholipid vesicles (1 mM phosphatidylcholine 18:1/16:0 (1-palmityl-2-oleyl-sn-glycero-3-phosphocholine), lysophosphatidylcholine 16:0 (1-Palmitoyl-2-Hydroxy-sn-Glycero-3-Phosphocoline) or sphingomyelin 16:0 (N-Palmitoyl-D-erythro-sphingosylphosphorylcholine) each from Avanti Polar Lipids) overnight at 37° C. in buffer A (5 mM Tris, 150 mM NaCl, 1 mM EDTA, pH 7.4). The vesicles had been prepared by sonicating 10 mM lipid solutions using a Branson Sonifier 250 sonicator (6 times for 5 minutes) in buffer A. Vesicles were removed with sequential ultracentrifugation (d<1.019 g/ml KBr) repeated twice. […]

apoB-100 = target: T2, apoB-100 (Homo sapiens, UniProt P04114); experiment: Circular dichroism of phospholipid-enriched LDL after SMase treatment; type: biochemical; details: lipid-enriched LDL, SMase 30 min
T2 construct: from tissue; host or cells: human blood plasma (LDL fraction d=1.019-1.063 g/ml, ultracentrifugation)
T2 sequence (P04114 28-4563): as above
Experimental: Samples of control and SM-, PC- and LPC-enriched LDL particles (1 mg/ml) were treated with SMase for 30-min and lipolysis was stopped by 10 mM EDTA. The LDL particles (50 μg/ml) were analyzed by CD as described previously (11,12).

LDL = LDL aggregation induced by oxidation, proteolysis or lipolysis, followed by DLS; type: biochemical, human; details: LDL 0.5 mg/ml from four donors; hrSMase at pH 5.5, other agents at pH 7.4
Experimental: Firstly, inter-individual variability in LDL aggregation using agents that have been reported to cause LDL aggregation was tested. LDL aggregation was induced at LDL concentration of 0.5 mg/ml by oxidation (incubation with 5 μM CuSO4), by proteolysis (incubation with 0.1 mg/ml α-chymotrypsin from bovine pancreas (Sigma-Aldrich)), or by lipolysis (incubation with 50 mU/ml phospholipase A2 (PLA2) from bee venom (Sigma-Aldrich)), with 200 mU/ml SMase from Bacillus cereus (bcSMase, Sigma-Aldrich)), or with 75 μg/ml hrSMase (a kind gift from Genzyme or produced in house). The incubation buffer was 20 mM Tris-HCl, pH 7.4, containing 150 mM NaCl and 2 mM CaCl2 and 2 mM MgCl2, except in the case of hrSMase, where the incubation buffer was 20 mM MES, pH 5.5, containing 150 mM NaCl and 50 μM ZnCl2. LDL size was determined at the beginning of the incubation and aggregate size was determined at the indicated time points by dynamic light scattering (DLS) (Zetasizer Nano, Malvern Instruments, Malvern Works, UK or Wyatt DynaPro Plate Reader 11, Wyatt Technology, California, USA).

In the case of CCCCCCCCCCCCC/C=C/[C@@H](O)[C@H](COP(=O)([O-])OCC[N+](C)(C)C)NC(=O)CCCCCCCCCCCCCCC [SM 18:1/16:0, N-Palmitoyl-D-erythro-sphingosylphosphorylcholine], the “Susceptibility of lipid-enriched LDL to aggregate during incubation with hrSMase, vs control LDL” value (LDL particles) is reported as “more susceptible” and the “SMase-induced conformational changes in apoB-100” value (apoB-100) is reported as “enhanced”.

With CCCCCCCCCCCCCCCC(=O)OC[C@@H](O)COP(=O)([O-])OCC[N+](C)(C)C [LPC 16:0, 1-Palmitoyl-2-Hydroxy-sn-Glycero-3-Phosphocoline] the “Susceptibility of lipid-enriched LDL to aggregate during incubation with hrSMase, vs control LDL” value (LDL particles) was “less susceptible”.

B1: bcSMase: SMase from Bacillus cereus (Sigma-Aldrich) (protein, UniProt P09599 28-333, looked up)
Sphingomyelinase C: DTSTDQNNTLKVMTHNVYMLSTNLYPNWGQSQRADLIGAADYIKNQDVVILNEVFDNSASDRLLGNLKKEYPNQTAVLGRSNGNEWDKTLGSYSSSTPEDGGVAIVSKWPIVEKIQYVFAKGCGPDNLSNKGFVYTKIKKNDRFVHVIGTHLQAEDSMCGKTSPASVRTNQLKEIQDFIKNKNIPNDEYVLFGGDMNVNKINAENNSDSEYASMFKTLHASIPSYTGHTATWDATTNSIAKYNFPDSPAEYLDYIIASKDHANPSFIENKVLQPKSPQWTVTSWLKKYTYDDYSDHYPVAATISMK
B1 was tested, and the “Aggregation of LDL” value (LDL) was “caused aggregation”.
